ChEMBL document CHEMBL4706727, “Discovery of 2,4-1H-Imidazole Carboxamides as Potent and Selective TAK1 Inhibitors” (ACS Med Chem Lett, 2021)

Experiments:
TAK1/TAB1 = TAK1/TAB1 (Homo sapiens, UniProt O43318); experiment: Inhibition of recombinant human full-length His-tagged TAK1-TAB1 fusion protein (437 to 504 residues) expressed in baculovirus expression system using fluorescein-MAP2K1 as substrate preincubated for 30 mins followed by substrate addition and measured after 60 mins in presence of ATP by lanthascreen TR-FRET assay
Chain of TAK1/TAB1 (Q15750 whole entry, the tested form may be a part, canonical isoform): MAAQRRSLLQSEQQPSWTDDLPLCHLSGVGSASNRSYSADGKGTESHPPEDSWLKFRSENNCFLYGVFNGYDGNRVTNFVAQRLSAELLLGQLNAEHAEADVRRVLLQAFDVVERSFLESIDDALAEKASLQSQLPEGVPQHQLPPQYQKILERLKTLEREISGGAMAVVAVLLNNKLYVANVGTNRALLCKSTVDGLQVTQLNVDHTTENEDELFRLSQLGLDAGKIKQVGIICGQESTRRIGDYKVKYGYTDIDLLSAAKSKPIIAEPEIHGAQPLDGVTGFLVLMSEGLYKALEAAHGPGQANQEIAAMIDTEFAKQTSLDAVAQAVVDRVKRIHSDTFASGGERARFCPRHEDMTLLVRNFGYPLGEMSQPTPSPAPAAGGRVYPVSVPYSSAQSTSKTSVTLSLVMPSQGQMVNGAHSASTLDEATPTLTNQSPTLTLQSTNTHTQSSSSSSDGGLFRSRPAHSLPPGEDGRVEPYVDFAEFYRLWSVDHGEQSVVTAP
Chain of TAK1/TAB1 (O43318 whole entry, the tested form may be a part, canonical isoform): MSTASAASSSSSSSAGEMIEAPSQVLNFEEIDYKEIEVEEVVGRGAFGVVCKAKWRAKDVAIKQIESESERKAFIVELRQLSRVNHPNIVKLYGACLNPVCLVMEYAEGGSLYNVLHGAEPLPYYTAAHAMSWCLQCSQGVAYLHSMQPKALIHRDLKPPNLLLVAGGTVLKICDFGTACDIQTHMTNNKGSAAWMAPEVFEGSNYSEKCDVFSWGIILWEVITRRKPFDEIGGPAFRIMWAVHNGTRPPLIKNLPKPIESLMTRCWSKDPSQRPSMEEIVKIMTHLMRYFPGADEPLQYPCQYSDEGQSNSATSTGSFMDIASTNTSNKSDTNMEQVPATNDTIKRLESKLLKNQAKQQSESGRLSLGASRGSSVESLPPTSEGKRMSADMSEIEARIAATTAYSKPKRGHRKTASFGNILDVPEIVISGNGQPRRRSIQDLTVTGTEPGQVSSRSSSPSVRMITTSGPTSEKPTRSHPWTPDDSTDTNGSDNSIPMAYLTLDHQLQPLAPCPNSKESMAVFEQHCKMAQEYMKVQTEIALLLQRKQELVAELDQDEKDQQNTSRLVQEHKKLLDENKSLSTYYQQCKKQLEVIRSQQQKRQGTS

[1] = target: T1, Phosphatidylinositol 4,5-bisphosphate 3-kinase catalytic subunit delta isoform (Homo sapiens) (UniProt O00329); experiment: Inhibition of wild-type human partial length PIK3CD (R108 to Q1044 residues) expressed in mammalian expression system at 10 uM by Kinomescan method relative to control; settings: dose 1.0 µM, in the assay text read “at 1 uM” for “at 10 uM”
T1 sequence (whole entry): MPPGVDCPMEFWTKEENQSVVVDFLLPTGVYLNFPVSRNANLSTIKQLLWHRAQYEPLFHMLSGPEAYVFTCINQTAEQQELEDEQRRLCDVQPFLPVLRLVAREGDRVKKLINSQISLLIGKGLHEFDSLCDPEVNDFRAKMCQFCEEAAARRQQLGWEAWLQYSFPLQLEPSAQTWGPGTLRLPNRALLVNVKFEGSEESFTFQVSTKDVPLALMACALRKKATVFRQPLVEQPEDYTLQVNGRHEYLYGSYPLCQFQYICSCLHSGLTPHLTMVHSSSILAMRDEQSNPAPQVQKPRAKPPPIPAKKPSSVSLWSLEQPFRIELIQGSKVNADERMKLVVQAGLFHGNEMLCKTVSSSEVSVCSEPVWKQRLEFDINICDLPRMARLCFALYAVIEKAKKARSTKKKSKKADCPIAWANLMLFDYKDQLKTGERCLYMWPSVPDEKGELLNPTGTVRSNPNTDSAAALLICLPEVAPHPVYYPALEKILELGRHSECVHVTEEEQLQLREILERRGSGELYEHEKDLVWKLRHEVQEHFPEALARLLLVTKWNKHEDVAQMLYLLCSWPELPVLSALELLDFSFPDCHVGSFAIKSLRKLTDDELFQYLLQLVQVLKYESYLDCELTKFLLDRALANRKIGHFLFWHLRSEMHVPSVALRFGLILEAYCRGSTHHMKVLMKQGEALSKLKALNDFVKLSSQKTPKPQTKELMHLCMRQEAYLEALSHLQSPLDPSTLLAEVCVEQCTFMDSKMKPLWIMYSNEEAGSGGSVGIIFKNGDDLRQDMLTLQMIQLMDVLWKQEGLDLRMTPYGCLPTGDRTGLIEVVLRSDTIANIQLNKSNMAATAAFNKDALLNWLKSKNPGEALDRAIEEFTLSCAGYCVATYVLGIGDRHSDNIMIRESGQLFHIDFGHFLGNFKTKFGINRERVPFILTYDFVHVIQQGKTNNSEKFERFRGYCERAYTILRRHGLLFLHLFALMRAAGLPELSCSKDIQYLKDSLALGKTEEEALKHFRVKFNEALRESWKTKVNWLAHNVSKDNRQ

[2] = target: Phosphatidylinositol 4-phosphate 5-kinase type-1 gamma (Homo sapiens) (UniProt O60331); experiment: Inhibition wild type human partial length PIP5K1C (M1 to T668 residues) expressed in mammalian expression system at 10 uM by Kinomescan method relative to control; settings: dose 1.0 µM, in the assay text read “at 1 uM” for “at 10 uM”
Chain of Phosphatidylinositol 4-phosphate 5-kinase type-1 gamma (Homo sapiens) (O60331 whole entry, the tested form may be a part): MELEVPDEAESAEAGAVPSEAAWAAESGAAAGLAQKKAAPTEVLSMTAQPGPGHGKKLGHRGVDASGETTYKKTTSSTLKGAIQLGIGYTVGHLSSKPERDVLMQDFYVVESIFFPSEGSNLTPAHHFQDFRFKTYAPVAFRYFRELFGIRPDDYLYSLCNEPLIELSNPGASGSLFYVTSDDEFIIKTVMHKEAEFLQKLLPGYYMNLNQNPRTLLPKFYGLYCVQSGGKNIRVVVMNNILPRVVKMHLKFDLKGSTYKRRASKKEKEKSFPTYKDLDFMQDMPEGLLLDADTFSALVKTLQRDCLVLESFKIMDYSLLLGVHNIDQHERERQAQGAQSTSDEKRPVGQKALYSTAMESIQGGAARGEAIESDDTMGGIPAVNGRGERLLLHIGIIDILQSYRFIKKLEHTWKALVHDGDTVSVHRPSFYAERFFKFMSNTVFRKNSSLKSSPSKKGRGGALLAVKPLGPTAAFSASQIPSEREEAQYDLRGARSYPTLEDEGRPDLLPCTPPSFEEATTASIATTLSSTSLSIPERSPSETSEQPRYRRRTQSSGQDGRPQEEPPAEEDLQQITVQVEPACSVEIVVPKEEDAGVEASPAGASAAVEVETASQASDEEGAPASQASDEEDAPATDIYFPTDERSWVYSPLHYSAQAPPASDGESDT

| Structure (SMILES) | IC50 (TAK1/TAB1) [µM] | inhibition [1] [%] | inhibition [2] [%] |
| --- | --- | --- | --- |
| CCOc1ccccc1CN(CC(=O)NC)C(=O)c1c[nH]c(C(=O)N2CCCC2)c1 | 2.6 |  |  |
| CNC(=O)CN(Cc1ccccc1OC(F)F)C(=O)c1c[nH]c(C(=O)N2CCCC2)c1 | 1.3 |  |  |
| CNC(=O)CN(Cc1ccccc1OC(F)F)C(=O)c1c[nH]c(C(=O)N2Cc3ccc(C(N)=O)cc3C2)n1 | 0.005 | > 65 | > 65 |
| CNC(=O)CN(Cc1ccccc1OC(F)F)C(=O)c1c[nH]c(C(=O)N2CCCCCC2)n1 | 2.9 |  |  |
| CNC(=O)CN(Cc1ccccc1OC(F)F)C(=O)c1c[nH]c(C(=O)N2CCC(F)C2)n1 (stereo not drawn) | 1.2 |  |  |
| CNC(=O)[C@H](C)N(Cc1ccccc1OC(F)F)C(=O)c1c[nH]c(C(=O)N2CCCC2)n1 | 4.5 |  |  |
| CNC(=O)C(C)N(Cc1ccccc1OC(F)F)C(=O)c1c[nH]c(C(=O)N2CCCC2)n1 (stereo not drawn) | 0.5 |  |  |
| CNC(=O)CN(Cc1ccccc1OC(F)F)C(=O)c1c[nH]c(C(=O)N2CCCCC2)c1 | 1.8 |  |  |
| CNC(=O)CN(Cc1ccccc1OC(F)F)C(=O)c1c[nH]c(C(=O)N2Cc3ccccc3C2)n1 | 0.3 |  |  |
| CNC(=O)CN(Cc1cccc2c1OCCCO2)C(=O)c1c[nH]c(C(=O)N2CCCC2)c1 | 3.4 |  |  |
| CNC(=O)CN(Cc1c(F)cccc1OC(F)F)C(=O)c1c[nH]c(C(=O)N2CCCC2)n1 | > 10 |  |  |
| CNC(=O)CN(Cc1ccccc1OC(F)F)C(=O)c1c[nH]c(C(=O)N(C)C)c1 | 26 |  |  |
| CNC(=O)CN(Cc1ccccc1)C(=O)c1c[nH]c(C(=O)N2CCCC2)n1 | > 10 |  |  |
| CNC(=O)CN(Cc1ccccc1OC)C(=O)c1c[nH]c(C(=O)N2CCCC2)c1 | 2.8 |  |  |
| CNC(=O)CN(Cc1cccc(OC)c1OC(F)F)C(=O)c1c[nH]c(C(=O)N2CCCC2)n1 | > 10 |  |  |
| NC(=O)CN(Cc1ccccc1OC(F)F)C(=O)c1c[nH]c(C(=O)N2CCCC2)c1 | 0.9 |  |  |
| CNC(=O)CN(Cc1cccc(OC(F)F)c1)C(=O)c1c[nH]c(C(=O)N2CCCC2)n1 | > 10 |  |  |
| O=C(c1c[nH]c(C(=O)N2CCCC2)c1)N(Cc1ncco1)Cc1ccccc1OC(F)F | 3.2 |  |  |
| CNC(=O)CN(Cc1cc(F)ccc1OC(F)F)C(=O)c1c[nH]c(C(=O)N2CCCC2)n1 | > 10 |  |  |
| CNC(=O)CN(Cc1ccccc1OC(F)F)C(=O)c1c[nH]c(C(=O)N2CCC2)n1 | 2.6 |  |  |
| CC(C)NC(=O)CN(Cc1ccccc1OC(F)F)C(=O)c1c[nH]c(C(=O)N2CCCC2)c1 | 1.7 |  |  |
